In patent US20090275499A1, “NONSTRUCTURAL PROTEIN NS1 AS A NOVEL THERAPEUTIC TARGET AGAINST FLAVIVIRUSES” (priority 2008, published 2009):
“Also recorded” adds a separate entry of the source.

Tests used:
DENV sNS1 secretion [1] = tested on: DENV sNS1 secretion
Method: Vero cells were infected with DENV-1 at an MOI of 1 for 2 h at 37° C. An uninfected control was included. At seven hours post infection, cells were either mock-treated or treated with D-threo-1-phenyl-2-palmitoylamino-3-pyrrolidino-1-propanol (P4; Calbiochem, San Diego, Calif.) at 2 or 5 μM, combined or not with 1 mM DMJ (Calbiochem, San Diego, Calif.). At 24 hours post infection, cells were washed and incubated for 1 h in methionine/cysteine-free DMEM before metabolically labeling proteins for 4 h in methionine/cysteine-free DMEM supplemented with a mix of ^35S-labeled methionine/cysteine. The NS1 protein was then immunoprecipitated from cell lysates prepared in 25 mM Tris-HCl pH 7.6, 150 mM NaCl, 1% NP-40, 1% sodium deoxycholate, 0.1% SDS, or from the supernatant, with anti-NS1 MAb 13A1 (kindly provided by Dr. Robert Putnak). Immunoprecipitated proteins were separated by SDS-PAGE and detected on an X-ray film.

DENV sNS1 secretion [2] = conditions: DENV-infected Vero cells; Flamand et al., 1999; cited from earlier work
Vero cells = conditions: 5 μM P4, Vero cells
DENV sNS1 protein = test: Inhibition of DENV sNS1-mediated endothelial cell activation (E-selectin cell-based ELISA in HUVEC); parameters: species or system Dengue virus (DENV-1)
Method: Activation of endothelial cells by the DENV sNS1 protein has been monitored by the production of adhesion molecule E-selectine, as previously described (Kayal et al., 1999). Briefly, HUVEC cell monolayers were incubated with various concentrations of the purified sNS1 protein for different periods of time. Cells were washed once with warm M199 medium supplemented with 20% FCS and twice with serum-free M199 before fixation for 10 min in ice-cold PBS containing 4% paraformaldehyde. Cells were then rinsed with PBS and treated with a 10% bovine serum albumin (BSA) solution in PBS to reduce non-specific binding of antibodies. Plates were then sequentially incubated for 2 h at room temperature (RT) with primary anti-E-selectin monoclonal antibody (BBA2, R&D Systems, Minneapolis, Minn.) at a dilution of 1:2000 in PBS containing 5% BSA (PBS/BSA), and a secondary peroxidase-conjugated rabbit anti-mouse IgG (Sigma, St. Louis, Mo.) at a dilution of 1:4000 in PBS/BSA. After extensive washes in PBS/BSA and PBS alone, bound antibodies were detected using the TMB Microwell peroxidase substrate system (KPL). The reaction was stopped after 3-5 min by addition of 2.5 N sulfuric acid and the absorbance values were read at a wavelength of 450 nm. […]

[3] = tested on: TNF-α-mediated induction of E-selectin expression; test: TNF-α-mediated induction of E-selectin expression in HUVEC (cell-based ELISA); parameters: species or system human; conditions: TNF-α 10 ng/ml pre-incubated with PMB

## OC[C@H]1NC[C@@H](O)[C@@H](O)[C@@H]1O [DMJ, deoxymannojirymicin]
DENV sNS1 secretion [1]; P4 2 or 5 μM + DMJ 1 mM, DENV-infected Vero (kidney) cells
  sNS1 secretion, combination of P4 and DMJ: additional effect on P4 inhibition
DENV sNS1 secretion [2]
  sNS1 secretion, DMJ alone: impairs sNS1 secretion

## CCCCCCCCCCCCCCCC(=O)N[C@H](CN1CCCC1)[C@H](O)c1ccccc1 [P4, D-threo-1-phenyl-2-palmitoylamino-3-pyrrolidino-1-propanol]
DENV sNS1 secretion [1]; P4 alone, DENV-infected Vero cells, MOI 1, effect stated at 5 μM P4
  secretion of sNS1: significantly reduced; also recorded: interferes with sNS1 secretion
Vero cells
  cell viability: without compromising cell viability

## polymyxin B [PMB]
DENV sNS1 protein; HUVEC pulse treated with sNS1 (10 μg/ml) pre-incubated with PMB 2 and 10 μg/ml, 15 min-6 h, fixed at 6 h
  expression of E-selectin in response to the sNS1 protein: repressive effect
DENV sNS1 protein; no detectable LPS in purified sNS1 preparations
  sNS1-induced HUVEC (endothelial cell) activation: very efficiently block endothelial cell activation by sNS1; also recorded: abrogated the ability of DENV sNS1 to activate HUVEC; also recorded: blocks sNS1-induced HUVEC activation
[3]
  TNF-α-mediated induction of E-selectin expression: did not show any effect
